Data: PMC9611521, “Optimization of Resveratrol Used as a Scaffold to Design Histone Deacetylase (HDAC-1 and HDAC-2) Inhibitors” (Pharmaceuticals, 2022)

Key:
Type in all cases: biochemical
Conditions in all cases: compound at 10 µM
HDAC-8 = target: T1, HDAC-8 (Homo sapiens, UniProt Q9BY41); assay: Enzymatic HDAC selectivity panel, HDAC-8
T1 sequence (Q9BY41 1-377): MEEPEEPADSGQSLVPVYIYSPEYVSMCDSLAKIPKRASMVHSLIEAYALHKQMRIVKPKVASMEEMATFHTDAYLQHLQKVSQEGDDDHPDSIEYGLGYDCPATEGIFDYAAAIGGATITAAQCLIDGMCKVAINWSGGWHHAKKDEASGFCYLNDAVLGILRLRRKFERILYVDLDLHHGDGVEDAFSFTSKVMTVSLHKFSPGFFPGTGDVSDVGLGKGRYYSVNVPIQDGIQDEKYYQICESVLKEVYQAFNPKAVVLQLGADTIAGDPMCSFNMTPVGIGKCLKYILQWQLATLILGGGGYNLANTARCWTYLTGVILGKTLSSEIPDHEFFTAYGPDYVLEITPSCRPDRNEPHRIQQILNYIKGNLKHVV
Procedure: (§1) Enzymatic assays to evaluate HDAC inhibition were performed, and the design involved three steps: (a) Preliminary screening to identify the most promising compounds; (b) Evaluation by a panel of HDAC isoforms to investigate selectivity; and (c) Determination of IC50 values. Firstly, compounds (4–7; 15–26) were evaluated at 10 µM against HDAC-1 and HDAC-2 (Table 2).
(§2) The enzymatic assay to evaluate HDAC inhibitory effects for all final compounds against the distinct isoforms was carried out in accordance with the previously described procedures (Lopes et al., 2021). All compounds were initially screened at 10 µM against HDAC-1 and HDAC-2. […] All the compounds were dissolved in DMSO. A serial dilution of the compounds was performed in 100% DMSO with the highest concentration at 1 mM. Each intermediate compound dilution (in 100% DMSO) was diluted 10x in assay buffer to form a 10% DMSO intermediate dilution in HDAC assay buffer. 5 µL of this dilution was added to a 50 µL reaction to bring the final concentration of DMSO to 1% in all the reactions. […] The fluorescence intensity was measured at an excitation of 360 nm and emission of 460 nm using a Tecan Infinite M1000 microplate reader, and the percentage of activity was calculated using the formula: % activity = (F − Fb)/(Ft − Fb), where F = the intensity of fluorescence in the presence of the compound. […]

HDAC-3 = HDAC-3 (Homo sapiens, UniProt O15379); assay: Enzymatic HDAC selectivity panel, HDAC-3
Sequence of HDAC-3 (O15379 whole entry): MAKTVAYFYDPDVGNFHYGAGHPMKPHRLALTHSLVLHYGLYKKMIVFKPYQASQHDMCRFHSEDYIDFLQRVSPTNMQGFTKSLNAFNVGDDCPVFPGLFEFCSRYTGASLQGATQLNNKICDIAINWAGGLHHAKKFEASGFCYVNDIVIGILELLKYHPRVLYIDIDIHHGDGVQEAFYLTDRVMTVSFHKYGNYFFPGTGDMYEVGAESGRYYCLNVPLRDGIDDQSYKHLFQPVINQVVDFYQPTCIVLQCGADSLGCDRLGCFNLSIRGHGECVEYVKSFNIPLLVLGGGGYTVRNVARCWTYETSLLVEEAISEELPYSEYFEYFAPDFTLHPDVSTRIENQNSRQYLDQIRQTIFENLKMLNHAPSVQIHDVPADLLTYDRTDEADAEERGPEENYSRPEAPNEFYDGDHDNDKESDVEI
Sequence of HDAC-3 (Q9Y618 395-489 partner limits assumed): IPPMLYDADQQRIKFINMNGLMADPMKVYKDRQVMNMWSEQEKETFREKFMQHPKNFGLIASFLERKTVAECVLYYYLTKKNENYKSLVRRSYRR
Procedure: as §1, §2

HDAC-6 = target: T2, HDAC-6 (Homo sapiens, UniProt Q9UBN7); assay: Enzymatic HDAC selectivity panel, HDAC-6
T2 sequence (Q9UBN7 1-1215): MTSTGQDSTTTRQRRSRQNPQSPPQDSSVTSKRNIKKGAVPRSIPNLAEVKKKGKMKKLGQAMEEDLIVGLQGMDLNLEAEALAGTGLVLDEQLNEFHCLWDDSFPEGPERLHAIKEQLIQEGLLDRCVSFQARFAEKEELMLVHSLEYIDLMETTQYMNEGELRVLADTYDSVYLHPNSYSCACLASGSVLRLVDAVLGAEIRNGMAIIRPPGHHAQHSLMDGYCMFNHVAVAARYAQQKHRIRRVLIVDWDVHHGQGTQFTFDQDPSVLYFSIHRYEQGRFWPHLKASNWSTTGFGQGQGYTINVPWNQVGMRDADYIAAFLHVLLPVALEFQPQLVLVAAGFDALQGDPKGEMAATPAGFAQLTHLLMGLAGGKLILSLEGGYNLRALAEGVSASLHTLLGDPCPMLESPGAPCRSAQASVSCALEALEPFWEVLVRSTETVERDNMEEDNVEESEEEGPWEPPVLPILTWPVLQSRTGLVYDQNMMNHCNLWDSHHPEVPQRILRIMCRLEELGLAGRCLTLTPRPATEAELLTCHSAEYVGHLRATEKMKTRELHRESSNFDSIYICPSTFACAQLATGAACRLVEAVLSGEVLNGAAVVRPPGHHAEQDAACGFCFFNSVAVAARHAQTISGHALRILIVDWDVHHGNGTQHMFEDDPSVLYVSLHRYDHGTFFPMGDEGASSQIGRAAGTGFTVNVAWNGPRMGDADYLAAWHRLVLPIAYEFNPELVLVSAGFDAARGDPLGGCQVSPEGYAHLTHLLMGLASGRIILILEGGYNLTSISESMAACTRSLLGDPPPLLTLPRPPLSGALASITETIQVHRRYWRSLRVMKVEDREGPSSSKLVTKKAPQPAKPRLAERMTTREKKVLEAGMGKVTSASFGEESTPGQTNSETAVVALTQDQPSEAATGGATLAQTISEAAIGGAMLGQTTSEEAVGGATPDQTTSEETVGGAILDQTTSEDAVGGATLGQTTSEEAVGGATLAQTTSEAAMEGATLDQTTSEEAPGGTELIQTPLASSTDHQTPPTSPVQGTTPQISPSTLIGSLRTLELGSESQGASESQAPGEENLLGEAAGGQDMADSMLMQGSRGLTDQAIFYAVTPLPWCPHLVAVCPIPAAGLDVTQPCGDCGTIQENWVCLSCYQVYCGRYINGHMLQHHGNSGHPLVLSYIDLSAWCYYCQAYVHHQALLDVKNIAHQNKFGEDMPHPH
Procedure: as §1, §2

HDAC-10 = target: T3, HDAC-10 (Homo sapiens, UniProt Q969S8); assay: Enzymatic HDAC selectivity panel, HDAC-10
T3 sequence (Q969S8 1-669): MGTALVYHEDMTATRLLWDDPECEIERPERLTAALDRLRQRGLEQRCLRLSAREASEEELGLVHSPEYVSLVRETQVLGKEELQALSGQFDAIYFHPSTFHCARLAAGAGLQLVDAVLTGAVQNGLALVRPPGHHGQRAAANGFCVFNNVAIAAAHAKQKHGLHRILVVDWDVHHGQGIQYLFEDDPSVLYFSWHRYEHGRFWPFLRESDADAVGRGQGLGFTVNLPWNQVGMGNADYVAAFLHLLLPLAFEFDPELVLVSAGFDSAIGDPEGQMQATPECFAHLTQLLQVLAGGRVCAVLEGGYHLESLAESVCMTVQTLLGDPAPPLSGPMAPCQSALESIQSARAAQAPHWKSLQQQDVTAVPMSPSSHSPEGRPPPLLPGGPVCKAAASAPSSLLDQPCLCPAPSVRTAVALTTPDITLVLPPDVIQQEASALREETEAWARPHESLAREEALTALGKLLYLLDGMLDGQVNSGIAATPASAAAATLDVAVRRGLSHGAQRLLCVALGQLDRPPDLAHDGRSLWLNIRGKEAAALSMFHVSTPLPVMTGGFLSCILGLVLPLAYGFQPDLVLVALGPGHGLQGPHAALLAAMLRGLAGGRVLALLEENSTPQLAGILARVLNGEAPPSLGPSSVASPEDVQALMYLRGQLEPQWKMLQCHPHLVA
Procedure: as §1, §2

HDAC-9 = HDAC-9 (Homo sapiens, UniProt Q9UKV0); assay: Enzymatic HDAC selectivity panel, HDAC-9
Sequence of HDAC-9 (Q9UKV0 whole entry): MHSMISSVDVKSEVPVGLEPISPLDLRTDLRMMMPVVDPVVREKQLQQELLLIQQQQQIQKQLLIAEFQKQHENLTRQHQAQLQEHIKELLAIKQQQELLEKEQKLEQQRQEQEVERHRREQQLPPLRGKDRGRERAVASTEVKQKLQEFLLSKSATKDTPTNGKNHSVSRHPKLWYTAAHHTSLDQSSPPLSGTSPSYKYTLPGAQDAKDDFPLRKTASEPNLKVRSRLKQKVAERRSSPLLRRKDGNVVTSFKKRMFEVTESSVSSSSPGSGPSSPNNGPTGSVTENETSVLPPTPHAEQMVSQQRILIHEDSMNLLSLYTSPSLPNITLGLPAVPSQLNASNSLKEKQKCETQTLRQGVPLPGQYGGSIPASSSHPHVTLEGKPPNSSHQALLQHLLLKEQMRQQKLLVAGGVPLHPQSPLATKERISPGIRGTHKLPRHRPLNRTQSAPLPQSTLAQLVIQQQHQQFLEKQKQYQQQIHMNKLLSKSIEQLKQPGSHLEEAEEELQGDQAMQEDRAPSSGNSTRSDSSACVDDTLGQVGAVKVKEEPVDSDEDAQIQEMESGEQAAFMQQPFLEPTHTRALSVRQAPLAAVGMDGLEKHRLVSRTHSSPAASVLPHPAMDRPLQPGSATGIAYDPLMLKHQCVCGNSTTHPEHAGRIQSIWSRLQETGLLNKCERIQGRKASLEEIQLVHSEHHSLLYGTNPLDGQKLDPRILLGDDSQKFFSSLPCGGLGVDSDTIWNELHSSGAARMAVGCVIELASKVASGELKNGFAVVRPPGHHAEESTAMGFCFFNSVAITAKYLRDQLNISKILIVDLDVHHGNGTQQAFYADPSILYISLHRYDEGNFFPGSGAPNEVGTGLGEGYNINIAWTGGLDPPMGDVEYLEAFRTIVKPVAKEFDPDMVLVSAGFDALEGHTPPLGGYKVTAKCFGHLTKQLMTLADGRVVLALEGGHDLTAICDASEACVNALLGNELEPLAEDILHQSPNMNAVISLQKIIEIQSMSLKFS
Procedure: as §1, §2

inhibition at 10 µM (HDAC-8): 13 ± 1%
inhibition at 10 µM (HDAC-3): 82 ± 1.2%
inhibition at 10 µM (HDAC-6): 3 ± 0.4%
inhibition at 10 µM (HDAC-10): 60 ± 1.4%
inhibition at 10 µM (HDAC-9): 7 ± 0.4%
SMILES: Nc1ccc(CCc2ccc(C(=O)Nc3ccccc3N)cc2)cc1 [Compound (5)]
